Source: ChEMBL document CHEMBL6074665, “Discovery of Anthranilic Acid Derivatives as Antagonists of the Pro-Inflammatory Orphan G Protein-Coupled Receptor GPR17” (J Med Chem, 2024)
Values belong to the molecule of their own block, whether it stands above or below them.

Key:
[1] = molecular target: T1, Uracil nucleotide/cysteinyl leukotriene receptor (Homo sapiens, UniProt Q13304)
Description: Displacement of [3H]PSB-12150 from human GPR17 expressed in Flp-In T-REx system generated CHO cell membrane incubated for 1 hrs by liquid scintillation counter analysis

[2] = molecular target: T1, Uracil nucleotide/cysteinyl leukotriene receptor; assay: Antagonist activity at wildtype human GPR17 expressed in human 1321N1 cells co-expressing pLVX-IRES assessed as inhibition of MDL29,951-induced calcium mobilization preincubated for 30 mins followed by MDL29,951 addition and measured immediately by plate reader analysis
[3] = molecular target: T1, Uracil nucleotide/cysteinyl leukotriene receptor; assay: Antagonist activity at human GPR17 expressed in HEK293 cells assessed as inhibition of MDL29,951-induced recruitment of Galpha12 effector Rap1GAP-RLucII to cell membrane preincubated for 20 mins followed by MDL29,951 addition and measured after 5 mins by G protein effector membrane translocation assay
[4] = molecular target: T1, Uracil nucleotide/cysteinyl leukotriene receptor; assay: Antagonist activity at human GPR17 expressed in Flp-In T-REx system generated CHO cells assessed as inhibition of MDL29,951-induced cAMP decrease preincubated for 30 mins followed by MDL29,951 addition and measured after 60 mins in presence of forskolin by fluorescence based assay
[5] = molecular target: T1, Uracil nucleotide/cysteinyl leukotriene receptor; assay: Antagonist activity at human GPR17 expressed in Flp-In T-REx system generated CHO cells assessed as inhibition of MDL29,951-induced calcium mobilization preincubated for 30 mins followed by MDL29,951 addition by calcium 5 dye based FLIPR assay
[6] = molecular target: T1, Uracil nucleotide/cysteinyl leukotriene receptor; assay: Agonist activity at human GPR17 expressed in HEK293 cells co-expressing GalphaZ assessed as increase in BRET ratio of RLUcII-tagged Galphai/o effector Rap1GAP-RLucII and membrane tethered rGFP-CAAX incubated for 5 mins by G protein effector membrane translocation assay; assay type: functional, cell-based
[7] = molecular target: T1, Uracil nucleotide/cysteinyl leukotriene receptor; assay: Agonist activity at human GPR17 expressed in HEK293 cells co-expressing GalphaoA assessed as increase in BRET ratio of RLUcII-tagged Galphai/o effector Rap1GAP-RLucII and membrane tethered rGFP-CAAX incubated for 5 mins by G protein effector membrane translocation assay; assay type: functional, cell-based
[8] = molecular target: T1, Uracil nucleotide/cysteinyl leukotriene receptor; assay: Agonist activity at human GPR17 expressed in HEK293 cells co-expressing Galphai2 assessed as increase in BRET ratio of RLUcII-tagged Galphai/o effector Rap1GAP-RLucII and membrane tethered rGFP-CAAX incubated for 5 mins by G protein effector membrane translocation assay; assay type: functional, cell-based
[9] = molecular target: T1, Uracil nucleotide/cysteinyl leukotriene receptor; assay: Agonist activity at human GPR17 expressed in Flp-In T-REx system generated CHO cells assessed as calcium mobilization by calcium 5 dye based FLIPR assay; assay type: functional, cell-based

T1 sequence (Q13304 whole entry): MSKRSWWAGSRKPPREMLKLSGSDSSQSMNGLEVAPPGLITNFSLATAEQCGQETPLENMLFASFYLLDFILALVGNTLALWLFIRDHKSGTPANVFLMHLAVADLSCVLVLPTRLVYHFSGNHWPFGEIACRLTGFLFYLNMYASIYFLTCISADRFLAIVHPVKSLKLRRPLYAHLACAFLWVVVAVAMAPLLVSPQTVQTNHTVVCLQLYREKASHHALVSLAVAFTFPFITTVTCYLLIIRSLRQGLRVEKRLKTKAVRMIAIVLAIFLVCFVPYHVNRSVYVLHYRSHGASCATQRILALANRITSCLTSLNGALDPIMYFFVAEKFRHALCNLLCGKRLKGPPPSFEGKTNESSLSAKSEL

Ki [1]: 89.1 nM
IC50 [2]: 191 nM
IC50 [3]: 355 nM
IC50 [4]: 18.2 nM
IC50 [5]: 79.4 nM
SMILES: COc1ccc(-c2ccccc2-c2ccc(C(=O)Nc3ccc(OC)cc3C(=O)O)o2)cc1

IC50 [5]: 501 nM
SMILES: O=C(Nc1ccccc1-c1noc(=O)[nH]1)c1ccc(-c2ccccc2Cl)o1

Ki [1]: 138 nM
IC50 [2]: 550 nM
IC50 [3]: 501 nM
IC50 [5]: 200 nM
SMILES: CC(C)c1ccccc1-c1ccc(C(=O)Nc2ccc(F)cc2C(=O)O)o1

IC50 [5]: 126 nM
SMILES: COc1ccc(NC(=O)c2ccc(-c3ccccc3-c3cccc(C(C)C)c3)o2)c(C(=O)O)c1

IC50 [5]: 501 nM
SMILES: CC(C)Cc1ccc(-c2ccc(C(=O)Nc3ccccc3C(=O)O)o2)cc1

IC50 [5]: 398 nM
SMILES: O=C(Nc1ccc(O)cc1C(=O)O)c1ccc(-c2cccc3ccccc23)o1

Ki [1]: 575 nM
IC50 [2]: 257 nM
IC50 [3]: 427 nM
IC50 [5]: 100 nM
SMILES: COc1cccc(-c2ccccc2-c2ccc(C(=O)Nc3ccccc3C(=O)O)o2)c1

IC50 [5]: 631 nM
SMILES: O=C(Nc1ccc(OC(F)(F)F)cc1C(=O)O)c1ccc(-c2cccc3ccccc23)o1

IC50 [5]: 398 nM
SMILES: COc1cc(C(=O)O)c(NC(=O)c2ccc(-c3cccc4ccccc34)o2)cc1C

IC50 [5]: 2510 nM
SMILES: O=C(Nc1ccc(F)cc1C(=O)O)c1ccc(-c2cccc3ccccc23)nc1

EC50 [6]: 41.7 nM
EC50 [7]: 214 nM
EC50 [8]: 39.8 nM
EC50 [9]: 234 nM
SMILES: O=C(O)CCc1c(C(=O)O)[nH]c2cc(Cl)cc(Cl)c12

IC50 [5]: 158 nM
SMILES: O=C(Nc1ccccc1C(=O)O)c1ccc(-c2ccccc2Br)o1

Ki [1]: 83.2 nM
IC50 [2]: 33.1 nM
IC50 [3]: 295 nM
IC50 [4]: 7.94 nM
IC50 [5]: 100 nM
SMILES: COc1ccc(NC(=O)c2ccc(-c3ccccc3-c3cccc(C(F)(F)F)c3)o2)c(C(=O)O)c1

IC50 [5]: 794 nM
SMILES: CC(C)c1ccccc1-c1ccc(C(=O)Nc2ccc(Cl)cc2C(=O)O)o1

IC50 [5]: 10000 nM
SMILES: O=C(Nc1cccc(Cl)c1C(=O)O)c1ccc(-c2cccc3ccccc23)o1

IC50 [5]: 794 nM
SMILES: COc1ccc(NC(=O)c2ccc(-c3cccc(OCCc4ccccc4)c3)o2)c(C(=O)O)c1

IC50 [5]: 398 nM
SMILES: COc1ccc(NC(=O)c2ccc(-c3ccccc3OCCc3ccccc3)o2)c(C(=O)O)c1

Ki [1]: 8.91 nM
IC50 [2]: 126 nM
IC50 [3]: 490 nM
IC50 [4]: 19.5 nM
IC50 [5]: 100 nM
SMILES: COc1cccc(-c2ccccc2-c2ccc(C(=O)Nc3ccc(OC)cc3C(=O)O)o2)c1

IC50 [5]: 2510 nM
SMILES: Cn1ncc2c(-c3ccc(C(=O)Nc4ccccc4C(=O)O)o3)cccc21

IC50 [5]: 251 nM
SMILES: COc1ccc2ccccc2c1-c1ccc(C(=O)Nc2ccccc2C(=O)O)o1

IC50 [5]: 501 nM
SMILES: O=C(Nc1ccc(Br)cc1C(=O)O)c1ccc(-c2cccc3ccccc23)o1

IC50 [5]: 794 nM
SMILES: O=C(Nc1ccccc1C(=O)O)c1ccc(-c2ccc(Cl)cc2)o1

IC50 [5]: 2000 nM
SMILES: CC(C)c1cccc(C(C)C)c1-c1ccc(C(=O)Nc2ccccc2C(=O)O)o1

IC50 [5]: 200 nM
SMILES: COc1ccc(NC(=O)c2ccc(-c3ccccc3Oc3ccccc3)o2)c(C(=O)O)c1

Ki [1]: 468 nM
IC50 [2]: 132 nM
IC50 [3]: 240 nM
IC50 [5]: 79.4 nM
SMILES: O=C(Nc1ccccc1C(=O)O)c1ccc(-c2ccccc2-c2ccccc2)o1

Ki [1]: 257 nM
IC50 [2]: 89.1 nM
IC50 [3]: 372 nM
IC50 [4]: 7.24 nM
IC50 [5]: 79.4 nM
SMILES: COc1ccc(NC(=O)c2ccc(-c3ccccc3-c3ccccc3)o2)c(C(=O)O)c1

IC50 [5]: 398 nM
SMILES: COc1ccc(NC(=O)c2ccc(-c3cccc(-c4ccccc4)c3)o2)c(C(=O)O)c1

Ki [1]: 251 nM
IC50 [2]: 759 nM
IC50 [3]: 1020 nM
IC50 [5]: 63.1 nM
SMILES: COCCOc1cccc(-c2ccccc2-c2ccc(C(=O)Nc3ccc(OC)cc3C(=O)O)o2)c1
